The text below walks through data of publication PMC3466195, “Potassium Acts as a GTPase-Activating Element on Each Nucleotide-Binding Domain of the Essential Bacillus subtilis EngA” (PLoS ONE, 2012).

Read-outs that look alike come from different tables or passages of the source.

Assay [1] concerns the target T1, B. subtilis EngA (Bacillus subtilis, UniProt P50743).
T1 construct: full-length EngA (named hereafter as EngA) and its two shortened EngA variants, GD1 and GD2-KH were overexpressed in E. coli; His-tag (from pET15b; purified on Ni-IDA) (N); made in house; host or cells: E. coli C41(DE3)
T1 sequence (P50743 1-436): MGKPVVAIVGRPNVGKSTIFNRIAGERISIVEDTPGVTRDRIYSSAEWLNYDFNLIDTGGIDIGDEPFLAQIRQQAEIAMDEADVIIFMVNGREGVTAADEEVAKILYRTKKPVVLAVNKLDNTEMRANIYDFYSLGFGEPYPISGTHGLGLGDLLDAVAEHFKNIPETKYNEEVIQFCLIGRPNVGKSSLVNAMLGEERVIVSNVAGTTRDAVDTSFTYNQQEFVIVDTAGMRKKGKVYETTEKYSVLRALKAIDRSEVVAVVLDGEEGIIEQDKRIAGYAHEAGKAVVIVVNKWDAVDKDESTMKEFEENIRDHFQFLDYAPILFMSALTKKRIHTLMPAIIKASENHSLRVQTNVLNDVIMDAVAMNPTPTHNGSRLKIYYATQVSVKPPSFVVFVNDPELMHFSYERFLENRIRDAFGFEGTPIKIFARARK
As to the kind of experiment: Nucleotide binding monitored by intrinsic tryptophan fluorescence. Conditions: KD. Here is the method: (§1) Fluorescence measurements were performed essentially as described previously for the unmodified nucleotides or the N-methylanthraniloyl-GDP (MANT-GDP) analogue using a PTI QuantaMaster 4 spectrofluorimeter, [62]. Dissociation constants (K D) for nucleotides were calculated by monitoring intrinsic tryptophan fluorescence variation using 295 nm excitation wavelength, with a slit width of 2 nm, and scanning emission fluorescence between 310 and 400 nm (for the unmodified nucleotide) or 400 and 500 nm (for MANT-GDP), with a slit width of 4 nm. For the intrinsic tryptophan fluorescence, inner filter effect was corrected using N-Acetyltryptophanamide (NATA) as a reference. 1 µM NATA or 0.5 µM of YphC were mixed with 50 mM Tris/HCl pH 8, 2 mM MgCl2, NaCl or KCl and increasing amount of nucleotide (GDP, GMPPNP or MANT-GDP), as indicated in the figure legends. The fluorescence was normalized respective to the integrated value of the fluorescence peak obtained in the absence of unmodified nucleotide (between 310 and 400 nm) or MANT-GDP (between 400 and 500 nm). The data were fitted using the GraFit 5.0.11 software with the following equation: [drawing 1] where F is the relative fluorescence intensity in the presence of nucleotide, F min is the relative fluorescence in the absence of nucleotide, F max is the fluorescence intensity at saturating concentration of nucleotide, L is the nucleotide concentration, E is the protein concentration and K D is the dissociation constant of the protein-nucleotide complex.

Assay [2] has as its target T2, GD1 (shortened B. subtilis EngA variant) (Bacillus subtilis, UniProt P50743).
T2 construct: two shortened EngA variants that only contain GD1 or GD2-KH; His-tag (from pET15b; purified on Ni-IDA) (N); made in house; host or cells: E. coli C41(DE3)
The assay is described as above. Here is the method:
as §1

The target in assay [3] is T3, GD2-KH (shortened B. subtilis EngA variant) (Bacillus subtilis, UniProt P50743).
T3 construct: two shortened EngA variants that only contain GD1 or GD2-KH; His-tag (from pET15b; purified on Ni-IDA) (N); made in house; host or cells: E. coli C41(DE3)
Described as above. Here is the method:
as §1

A further assay deals with T4, EngA (Bacillus subtilis, UniProt P50743).
T4 construct: full-length EngA (named hereafter as EngA) and its two shortened EngA variants, GD1 and GD2-KH were overexpressed in E. coli; His-tag (from pET15b; purified on Ni-IDA) (N); made in house; host or cells: E. coli C41(DE3)
T4 sequence (P50743 1-436): T1 sequence (P50743 1-436)
As to the kind of experiment: Fluorescence-based Thermal Shift Assay (TSA). In kind it is binding. The conditions noted are these: EngA with 1 mM nucleotide; no effector Tm 41.5. How it is done: (§2) Assays were performed into a 96-well thin-wall PCR plate (BioRad) using an IQ5 96-well format real-time PCR instrument (Bio-Rad) over a temperature range from 20°C to 90°C with temperature increments of 0.2°C [64]. Assay samples (23 µl) contained 50 mM Tris/HCl pH 8, 0.5 mg/ml of EngA or 1.5 mg/ml of GD1 or GD2-KH, and concentration of salt and/or nucleotides as indicated, and 2 µl of SYPRO Orange solution (Molecular Probes, Eugene, OR, 500x in DMSO diluted 5 times in water) was added. The plates were heated and changes in fluorescence for the environmentally sensitive dye SYPRO Orange were monitored through a charge-coupled device (CCD) camera. The melting temperature (Tm) values for each protein were determined graphically from the fluorescence first derivative of the melting curves. The wavelengths for excitation and emission were 470 nm and 570 nm, respectively.

The target in assay [4] is T5, GD1 (Bacillus subtilis, UniProt P50743).
T5 construct: two shortened EngA variants that only contain GD1 or GD2-KH; His-tag (from pET15b; purified on Ni-IDA) (N); made in house; host or cells: E. coli C41(DE3)
T5 sequence (P50743 4-167 limits assumed): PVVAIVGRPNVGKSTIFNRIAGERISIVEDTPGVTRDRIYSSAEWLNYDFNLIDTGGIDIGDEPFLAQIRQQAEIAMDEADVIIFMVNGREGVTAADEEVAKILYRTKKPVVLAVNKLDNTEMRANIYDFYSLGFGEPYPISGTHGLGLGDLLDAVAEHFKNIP
As to the kind of experiment: Fluorescence-based Thermal Shift Assay (TSA). In kind it is binding. How it is done:
as §2

Assay [5] concerns the target T6, GD2-KH (Bacillus subtilis, UniProt P50743).
T6 construct: two shortened EngA variants that only contain GD1 or GD2-KH; His-tag (from pET15b; purified on Ni-IDA) (N); made in house; host or cells: E. coli C41(DE3)
T6 sequence (P50743 173-436): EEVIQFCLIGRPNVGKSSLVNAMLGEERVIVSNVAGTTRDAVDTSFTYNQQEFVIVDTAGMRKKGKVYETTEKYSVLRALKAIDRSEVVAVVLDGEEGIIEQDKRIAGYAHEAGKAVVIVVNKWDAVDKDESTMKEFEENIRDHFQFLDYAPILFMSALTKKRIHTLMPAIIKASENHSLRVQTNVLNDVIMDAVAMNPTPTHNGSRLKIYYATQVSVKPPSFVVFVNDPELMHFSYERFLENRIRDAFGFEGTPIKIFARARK
The experiment in a line: Fluorescence-based Thermal Shift Assay (TSA). In kind it is binding. Here is the method:
as §2

In a further assay the target is S. typhimurium EngA. Also on record: method as in PMID 17905831. Conditions: cited from earlier work.
The target of assay [6] is T7, B. subtilis EngA (Bacillus subtilis, UniProt P50743).
T7 construct: full-length EngA (named hereafter as EngA) and its two shortened EngA variants, GD1 and GD2-KH were overexpressed in E. coli; His-tag (from pET15b; purified on Ni-IDA) (N); made in house; host or cells: E. coli C41(DE3)
It is filed as biochemical. The conditions noted are these: for Km / Vmax / kcat: GTP hydrolysis by EngA; for kcat: fitted; for GTPase activity corresponding to 100%: wild-type EngA, 300 mM KCl. Here is the method:
(§3) GTPase activities were determined using a coupled-enzymatic assay containing pyruvate kinase and lactate dehydrogenase as previously described. The proteins (2 µM or 8 µM of EngA in the presence of KCl or NaCl, respectively, and 4 µM for GD1 and 12.5 µM for GD2-KH) and the coupled assay system containing 50 mM Tris/HCl pH 8, 4 mM phosphoenol pyruvate, 0.4 mM NADH, 1 mM MgCl2, 30 µg pyruvate kinase and 15 µg lactate dehydrogenase, were mixed into a quartz cuvette (final volume of 750 µl) in the presence of GTP (up to 1 mM) and salts, either KCl or NaCl, as indicated in the figure legends. When the GTPase and XTPase activities of the wild-type EngA and the single point mutants were studied (Fig. 7), the assay medium (final volume of 500 µl) contained 3 mM MgCl2 and the pyruvate kinase was increased to 120 µg to ensure an immediate conversion of XDP back into XTP. The reaction was started by adding 3.2 µM or 0.8 µM of wild-type EngA or single point mutants in the absence or presence of 300 mM K^+, respectively. GTP or XTP hydrolysis was monitored by following the change in absorbance at 340 nm upon conversion of NADH to NAD^+, for 10 min at 37°C, using either a Hitachi U3350 or a Safas UVmc^2 spectrophotometer. The slope measured (ΔDO/min) was used to calculate the activity of the protein taking into account the εNADH340nm = 6220 l.mol^−1.cm^−1. Control experiments were systematically performed in the absence of nucleotides (protein alone) or in the absence of proteins (nucleotides alone) and the activities measured in all cases were negligible. Between many different EngA preparations, the specific activities measured at 1 mM GTP varied between 100–130 nmoles/min/mg protein.

Assay [7] has as its target T5, GD1. The experiment in a line: GTP hydrolysis coupled-enzymatic assay. In kind it is biochemical. Here is the method: as §3
Assay [8] addresses T6, GD2-KH. The experiment in a line: GTP hydrolysis coupled-enzymatic assay. It is filed as biochemical. The conditions noted are these: for GTPase activity: GD2-KH. Here is the method:
as §3

Another assay concerns T. maritima EngA. The conditions noted are these: cited from earlier work.
The next assay relates to E. coli EngA. The arrangement: method as in PMID 16963571. The conditions noted are these: cited from earlier work.
A further assay relates to M. smegmatis EngA. The arrangement: method as in PMID 22506030. The conditions noted are these: cited from earlier work.

As to `Nc1nc2c(ncn2[C@@H]2O[C@H](COP(=O)(O)OP(=O)(O)O)[C@@H](O)[C@H]2O)c(=O)[nH]1` [GDP], the Kd is 16.3 ± 2.3 µM at B. subtilis EngA [1] (300 mM KCl); 12.8 ± 2.9 µM on B. subtilis EngA [1] (300 mM NaCl); 8 ± 1 µM at B. subtilis EngA [1] (no salt (absence of K+), 2 mM MgCl2, 25°C); 4.5 ± 0.9 µM in [2] (GD1, 300 mM KCl); 2.7 ± 0.4 µM in assay [2] (GD1, 300 mM NaCl); 2.9 ± 0.8 µM in [3] (300 mM KCl). Also, the dissociation constant Kd in assay [3] (300 mM NaCl) was 1.6 ± 0.2 µM; on S. typhimurium EngA (both G-domains), 1 to 3 µM. For the same compound, the Tm was found to be 59.4 °C on EngA; 64 °C at GD1 [4] (GD1 with 1 mM nucleotide, no effector Tm 51); 55.8 °C on GD2-KH [5] (GD2-KH with 1 mM nucleotide, no effector Tm 42.8). For the same compound, the ΔTm at 1000 µM is roughly 13 °C on GD1 [4] (pH 8, read-out: Tm increase) and roughly 13 °C on GD2-KH [5] (pH 8, read-out: Tm increase).

With `Nc1nc2c(ncn2[C@@H]2O[C@H](COP(=O)(O)OP(=O)(O)OP(=O)(O)O)[C@@H](O)[C@H]2O)c(=O)[nH]1` [GTP], the specific activity at B. subtilis EngA [6] (1 mM GTP, different EngA preparations) was 100–130 nmoles/min/mg protein. On B. subtilis EngA [6] (EngA, absence of K+), the “GTPase activity (kcat)” value lay in the range of 0.005 to 0.0083 s⁻¹. The Michaelis-Menten constant (Km) on B. subtilis EngA [6] (300 mM K+) is 153 µM; at B. subtilis EngA [6] (no K+), 111 µM; in the assay on T. maritima EngA (GTP, T. maritima EngA), 110 µM; in the assay with E. coli EngA (GTP, E. coli EngA), 143 µM; in the assay with M. smegmatis EngA (GTP, M. smegmatis EngA) it was 39 µM. Besides, the Vmax is 144.5±3.4 nmol/min/mg protein at B. subtilis EngA [6] (300 mM K+) and 6.1±0.2 nmol/min/mg protein at B. subtilis EngA [6] (absence of K+). The catalytic constant (kcat) on B. subtilis EngA [6] (300 mM K+) is roughly 0.123 s⁻¹; on B. subtilis EngA [6] (no K+), roughly 0.005 s⁻¹; in the assay with T. maritima EngA (400 mM K+), 0.0145 s⁻¹; in the assay on E. coli EngA (400 mM K+) it was 0.0193 s⁻¹; with M. smegmatis EngA (absence of K+), 8.3e-05 s⁻¹. In addition, the “GTPase activity corresponding to 100%” value is given as 77 µmol GTP hydrolyzed/min/mg proteins on B. subtilis EngA [6] (200 µM nucleotide) and 100 µmol GTP hydrolyzed/min/mg proteins at B. subtilis EngA [6] (1 mM GTP). Further, the GTPase activity on GD1 [7] (GD1, absence of K+) is roughly 0.6 min⁻¹; at GD2-KH [8] (absence of K+), 0.004 min⁻¹. Further, the Kd on S. typhimurium EngA (higher-affinity site (proposed GD1)) was roughly 12 µM; on S. typhimurium EngA (lower-affinity site (proposed GD2)), greater than 100 µM.

Turning to `[K+]` [K^+, potassium], the “increase in catalytic efficiency of EngA” value on B. subtilis EngA [6] (300 mM K+ vs absence of K+) is recorded as 20 fold. For the same compound, the “stimulation of the GTPase activity of EngA” value on B. subtilis EngA [6] (1 M KCl, 1 mM GTP) is roughly 15 fold. Further, the GTPase activity was roughly 5 min⁻¹ at B. subtilis EngA [6] (EngA, 0.4 M KCl); roughly 3.4 min⁻¹ at GD1 [7] (GD1, 1M KCl); roughly 0.45 min⁻¹ at GD2-KH [8] (1M KCl); 0.11 min⁻¹ in the assay on T. maritima EngA (0.4 M KCl). Further, the “K+ concentration giving maximal GTPase activity” value on GD1 [7] (GD1) is 500 mM. At GD2-KH [8] (GD2 domain), the “increase of GTPase activity upon K+ binding” value is recorded as roughly 100 fold. In addition, the “stimulation of GTPase activity by K+” value in the assay with T. maritima EngA (T. maritima EngA) is “about 4 fold”.

A word on the Kd: it is a measure of binding affinity in units of concentration. As a reminder, the Tm is the temperature at the midpoint of the melting transition. By Km is commonly meant the substrate concentration at which the rate is half of its maximum. Broadly, the kcat is the maximal rate divided by the concentration of active sites.
